In brackets after ≈: the same amount, converted by molar mass.

Data set [1] in a line: Stability of amorphous and crystalline form API at 60° C. (HPLC related substances). The data set is classed as physicochemical. As for the experimental part:
The samples of amorphous and crystalline form API of Compound A were placed in clean containers and the environmental temperature was controlled at 60° C. The purity of amorphous (Compound A-Amp) and crystalline form (Compound A-Xln) of Compound A were tested at Day 0, Day 10 and Day 30. Samples of amorphous and crystalline form APIs were measured, and the appropriate amount of diluent was added to dissolve with sonication. The concentration was controlled at 0.2 mg/ml and the purification was determined by HPLC with UV detector at 230 nm. Results were listed in the table as follows and the fitted curve is in Drawing Sections as FIG. 6.

A further data set is described as follows: Water solubility. The data set is classed as physicochemical.
A further data set has as its system PANC-1. The data set is described as follows: In vitro MTT (proliferation) assay. The data set is classed as cell-based. The note with it: Homo sapiens, PANC-1 cell line, pancreas. As for the experimental part: (§1) The inhibitions of Compound A-Xln, Compound A-P-Xln and two chiral isomers (Compound R-A, Compound S-A) to cancer cell lines are tested via in vitro MTT assay. Cancer cell lines are selected from PANC-1, NCI-H157, MDA-MB-231, Hela, PC-3, BEL7404, MKN45, Ishikawa, Saos-2, SKOV3, SW579 and HCT116 cell lines. The IC50 values are in the micromole scale.
(§2) In vitro MTT (proliferation) assay was performed with compound from above examples to give following inhibition results: […]

The test system of another data set is Ishikawa. The data set is described as follows: In vitro MTT (proliferation) assay. In kind it is cell-based. As to conditions: Homo sapiens, Ishikawa cell line, endometrial. The protocol: as §1, §2
Another data set relates to HCT-116. Kind of data set: In vitro MTT (proliferation) assay. As to conditions: Homo sapiens, HCT116 cell line, colon, MTT, read-out: HCT116 IC50. The data set is classed as cell-based. As for the experimental part: as §1, §2
Another data set deals with MDA-MB-231. The data set is described as follows: In vitro MTT (proliferation) assay. The data set is classed as cell-based. As to conditions: Homo sapiens; MDA-MB-231 cell line, breast; MTT; read-out: MDA-MB-231 IC50. The protocol:
as §1, §2

Another data set deals with Hela. The data set is described as follows: In vitro MTT (proliferation) assay. The data set is classed as cell-based. As to conditions: Homo sapiens; Hela cell line, ovary (so in the source); MTT; read-out: Hela IC50. As for the experimental part:
as §1, §2

The test system of another data set is PC-3. The data set is described as follows: In vitro MTT (proliferation) assay. The data set is classed as cell-based. As to conditions: Homo sapiens, PC-3 cell line, prostate. The protocol: as §1, §2
The next data set deals with MKN45. The data set is described as follows: In vitro MTT (proliferation) assay. In kind it is cell-based. The note with it: Homo sapiens, MKN-45, MKN45 cell line, breast (so in the source). As for the experimental part:
as §1, §2

Another data set relates to NCI-H157. The data set is described as follows: In vitro MTT (proliferation) assay. In kind it is cell-based. As to conditions: Homo sapiens, NCI-H157 cell line, lung. As for the experimental part: as §1, §2
The next data set relates to Saos-2. The data set is described as follows: In vitro MTT (proliferation) assay. The data set is classed as cell-based. The note with it: Homo sapiens, Saos-2 cell line, sarcoma. The protocol:
as §1, §2

The next data set relates to SW579. Kind of data set: In vitro MTT (proliferation) assay. The note with it: SW579 cell line, thyroid. The data set is classed as cell-based. As for the experimental part:
as §1, §2

The subject of the next data set is BEL7404. Kind of data set: In vitro MTT (proliferation) assay. The data set is classed as cell-based. As to conditions: Homo sapiens, BEL-7404, BEL7404 cell line, ovary (so in the source). As for the experimental part: as §1, §2
For a further data set, the system named is SKOV3. Kind of data set: In vitro MTT (proliferation) assay. The data set is classed as cell-based. The note with it: Homo sapiens, SK-OV-3; SKOV3 cell line, ovary; MTT; read-out: SKOV3 IC50. As for the experimental part:
as §1, §2

Where [2] appears, read: high temperature 60° C., 10 days.
[3] abbreviates: high temperature 60° C., 30 days.

Regarding `COc1cc2c(Oc3ccc4[nH]c(C)cc4c3F)ccnc2cc1OCCN1CC(O)C2(CC2)C1` (stereo not shown) [Compound A-Amp, 5-(2-(4-(4-fluoro-2-methyl-1H-indol-5-yloxy)-6-methoxyquinolin-7-yloxy)ethyl)-5-azaspiro[2.4]-heptan-7-ol], the “Maximum impurities (%)” value in data set [1] (0 day) came to 0.075%; in data set [1] (setting [2]), 0.191%; in data set [1] (setting [3]) it was 0.327%. Further, the “Total impurities (%)” value was 0.26% in data set [1] (0 day), 0.323% in data set [1] (setting [2]) and 0.583% in data set [1] (setting [3]).
Consider `COc1cc2c(Oc3ccc4[nH]c(C)cc4c3F)ccnc2cc1OCCN1CC(O)C2(CC2)C1` (stereo not shown) [Compound A-P, 5-(2-(4-(4-fluoro-2-methyl-1H-indol-5-yloxy)-6-methoxyquinolin-7-yloxy)ethyl)-5-azaspiro[2.4]-heptan-7-ol], for which, in the data set “Water solubility”, the solubility is 360 µg/mL (≈ 754 µM).
As for `COc1cc2c(Oc3ccc4[nH]c(C)cc4c3F)ccnc2cc1OCCN1CC(O)C2(CC2)C1` (stereo not shown) [Compound A-P-Xln, 5-(2-(4-(4-fluoro-2-methyl-1H-indol-5-yloxy)-6-methoxyquinolin-7-yloxy)ethyl)-5-azaspiro[2.4]-heptan-7-ol], the IC50 stood at 2.75 µM with PANC-1; 1.48 µM with Ishikawa; 0.934 µM in the data set on HCT-116; 3.93 µM in the data set with MDA-MB-231; 2.36 µM with Hela; 1.77 µM in the data set with PC-3. The IC50 amounted to 0.13 µM in the data set on MKN45; 1.61 µM in the data set on NCI-H157; 2.48 µM in the data set on Saos-2; 0.88 µM in the data set with SW579; 1.75 µM in the data set with BEL7404; 3.09 µM with SKOV3.
Consider `COc1cc2c(Oc3ccc4[nH]c(C)cc4c3F)ccnc2cc1OCCN1C[C@H](O)C2(CC2)C1` [Compound R-A], for which the IC50 in the data set with PANC-1 turned out to be 5.64 µM; with Ishikawa, 4.61 µM; in the data set with HCT-116, 0.883 µM; in the data set on MDA-MB-231 it was 9.6 µM; in the data set on Hela it was 6.69 µM; in the data set with PC-3, 2.75 µM. Besides, the IC50 amounted to 0.43 µM in the data set on MKN45; 8.11 µM in the data set on NCI-H157; 3.08 µM in the data set with Saos-2; 0.906 µM in the data set on SW579; 4.06 µM with BEL7404; 3.71 µM with SKOV3.
Take `COc1cc2c(Oc3ccc4[nH]c(C)cc4c3F)ccnc2cc1OCCN1C[C@@H](O)C2(CC2)C1` [Compound S-A]: the IC50 came out at 5 µM in the data set with PANC-1; 4.98 µM in the data set with Ishikawa; 0.98 µM with HCT-116; 6.6 µM in the data set with MDA-MB-231; 6.3 µM in the data set on Hela; 5.6 µM in the data set with PC-3. The IC50 in the data set on MKN45 came to 0.32 µM; in the data set on NCI-H157, 7 µM; in the data set with Saos-2 it was 5.35 µM; in the data set on SW579, 0.836 µM; in the data set on BEL7404, 2.38 µM; in the data set on SKOV3 it was 7.65 µM.

As usually defined, the solubility is the dissolved amount per volume that the medium holds. Lower therefore signals little dissolved substance. In general, IC50 refers to the midpoint of a concentration-inhibition curve.
